# Results published in patent US12384776B2, “Compounds and uses thereof” (Foghorn Therapeutics Inc., priority 2019, dated 2025).
# pIC50: −log10 of the molar value.
# Target: Nanoluciferase-BRD9 fusion protein (3×FLAG-NLuc-BRD9) in SYO-1 cells (Homo sapiens (Human), UniProt Q9H8M2)
# Assay: SYO1 BRD9 NanoLuc degradation assay
# Format: cell-based
# Conditions: SYO-1 cells expressing 3×FLAG-NLuc-BRD9, 6 hours incubation, top dose 1 μM
# Method: Procedure: A stable SYO-1 cell line expressing 3×FLAG-NLuc-BRD9 was generated. On day 0 cells were seeded in 30 μL media into each well of 384-well cell culture plates. The seeding density was 8000 cells/well. On day 1, cells were treated with 30 nL DMSO or 30 nL of 3-fold serially DMSO-diluted compounds (10 points in duplicates with 1 μM as final top dose). Subsequently plates were incubated for 6 hours in a standard tissue culture incubator and equilibrated at room temperature for 15 minutes. Nanoluciferase activity was measured by adding 15 μL of freshly prepared Nano-Glo Luciferase Assay Reagent (Promega N1130), shaking the plates for 10 minutes and reading the bioluminescence using an EnVision reader.
# Results: The Inhibition % was calculated using the following formula: % Inhibition=100×(LumHC−LumSample)/(LumHC−LumLC). DMSO treated cells are employed as High Control (HC) and 1 μM of a known BRD9 degrader standard treated cells are employed as Low Control (LC).
# Chain of Nanoluciferase-BRD9 fusion protein (3×FLAG-NLuc-BRD9) in SYO-1 cells (Q9H8M2 whole entry, the tested form may be a part): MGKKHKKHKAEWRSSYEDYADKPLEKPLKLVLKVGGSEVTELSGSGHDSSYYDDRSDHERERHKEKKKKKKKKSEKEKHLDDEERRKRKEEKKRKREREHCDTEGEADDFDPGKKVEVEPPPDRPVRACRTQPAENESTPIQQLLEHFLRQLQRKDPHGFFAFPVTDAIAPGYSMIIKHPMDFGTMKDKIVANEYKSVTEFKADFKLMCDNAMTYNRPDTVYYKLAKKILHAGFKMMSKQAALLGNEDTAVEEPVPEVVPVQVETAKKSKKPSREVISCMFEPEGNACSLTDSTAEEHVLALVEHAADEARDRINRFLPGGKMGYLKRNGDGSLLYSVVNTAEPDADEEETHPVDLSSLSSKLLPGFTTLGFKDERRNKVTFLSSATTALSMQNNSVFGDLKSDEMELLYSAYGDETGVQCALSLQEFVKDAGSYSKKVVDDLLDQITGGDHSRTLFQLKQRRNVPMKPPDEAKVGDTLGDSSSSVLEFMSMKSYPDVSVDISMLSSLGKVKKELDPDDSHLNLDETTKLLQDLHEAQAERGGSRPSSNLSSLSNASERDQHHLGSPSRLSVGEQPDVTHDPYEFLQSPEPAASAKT
row,pIC50,SMILES
1,7.00 to 8.00,CNC(=O)N1CCc2c(-c3cnc(CN4CCC(CCN5CCN(c6ccc7c(c6)C(=O)N(C6CCC(=O)NC6=O)C7=O)CC5)CC4)c(OC)c3)cn(C)c(=O)c2C1 (centres unmarked) [Compound D92]
2,> 8.00,CNC(=O)N1CCc2c(-c3cc(OC)c(CN4CCN(CCC5CCN(c6ccc7c(c6)C(=O)N(C6CCC(=O)NC6=O)C7=O)CC5)C(C#N)C4)c(OC)c3)cn(C)c(=O)c2C1 (centres unmarked) [Compound D93]
3,> 8.00,CNC(=O)N1CCc2c(-c3cc(OC)c(CN4CCN(CCC5CCN(c6ccc7c(c6)C(=O)N(C6CCC(=O)NC6=O)C7=O)CC5)C5(CCC5)C4)c(OC)c3)cn(C)c(=O)c2C1 (centres unmarked) [Compound D95]
4,> 8.00,CNC(=O)N1CCc2c(-c3cc(OC)c(CN4CCN(CCC5CCN(c6ccc7c(c6)C(=O)N(C6CCC(=O)NC6=O)C7=O)CC5)C5CC54)c(OC)c3)cn(C)c(=O)c2C1 (centres unmarked) [Compound D96]
5,> 8.00,CNC(=O)N1CCc2c(-c3cc(OC)c(CN4CCN(CCC5CCN(c6ccc7c(c6)C(=O)N(C6CCC(=O)NC6=O)C7=O)CC5)CC45COC5)c(OC)c3)cn(C)c(=O)c2C1 (centres unmarked) [Compound D98]
6,> 8.00,CNC(=O)N1CCc2c(-c3cc(OC)c(CN4CCN(CCC5CCN(c6ccc7c(c6)C(=O)N(C6CCC(=O)NC6=O)C7=O)CC5)CC4C)c(OC)c3)cn(C)c(=O)c2C1 (centres unmarked) [Compound D99]
7,> 8.00,CNC(=O)N1CCc2c(-c3cc(OC)c(CN4CCN(CCC5CCN(c6ccc7c(c6)C(=O)N(C6CCC(=O)NC6=O)C7=O)CC5)C(C)C4)c(OC)c3)cn(C)c(=O)c2C1 (centres unmarked) [Compound D100]
8,> 8.00,CNC(=O)N1CCc2c(-c3cc(OC)c(CN4CCN(CCC5CCN(c6ccc7c(c6)C(=O)N(C6CCC(=O)NC6=O)C7=O)CC5)CC4(C)C)c(OC)c3)cn(C)c(=O)c2C1 (centres unmarked) [Compound D102]
9,> 8.00,CNC(=O)N1CCc2c(-c3cc(OC)c(CN4CCN(CCC5CCN(c6ccc7c(c6)C(=O)N(C6CCC(=O)NC6=O)C7=O)CC5)C(COC)C4)c(OC)c3)cn(C)c(=O)c2C1 (centres unmarked) [Compound D103]
10,> 8.00,CNC(=O)N1CCc2c(-c3cc(OC)c(CN4CCN(CCC5CCN(c6ccc7c(c6)C(=O)N(C6CCC(=O)NC6=O)C7=O)CC5)CC4C(F)F)c(OC)c3)cn(C)c(=O)c2C1 (centres unmarked) [Compound D104]
11,> 8.00,[2H]C1([2H])N(CCC2CCN(c3ccc4c(c3)C(=O)N(C3CCC(=O)NC3=O)C4=O)CC2)C([2H])([2H])C([2H])([2H])N(Cc2c(OC)cc(-c3cn(C)c(=O)c4c3CCN(C(=O)NC)C4)cc2OC)C1([2H])[2H] (centres unmarked) [Compound D105]
12,> 8.00,CNC(=O)N1CCc2c(-c3cc(OC)c(C(C)N4CCC(CN5CCC6(CC5)CC(Oc5ccc7c(c5)C(=O)N(C5CCC(=O)NC5=O)C7=O)C6)CC4)c(OC)c3)cn(C)c(=O)c2C1 (centres unmarked) [Compound D106]
13,> 8.00,CNC(=O)N1CCc2c(-c3cc(OC)c(CN4CC(C(C)N5CCC6(CC5)CN(c5ccc7c(c5)C(=O)N(C5CCC(=O)NC5=O)C7=O)C6)C4)c(OC)c3)cn(C)c(=O)c2C1 (centres unmarked) [Compound D107]
14,> 8.00,CNC(=O)N1CCc2c(-c3cc(OC)c(CN4CC(CN5CCC6(CC5)CN(c5ccc7c(c5)C(=O)N(C5CCC(=O)NC5=O)C7=O)C6)C4)c(OC)c3)cn(C)c(=O)c2C1 (centres unmarked) [Compound D109]
15,> 8.00,COc1cc(-c2cn(C)c(=O)c3c2CCN(C(=O)NCC2CC4(CCN(c5ccc6c(c5)C(=O)N(C5CCC(=O)NC5=O)C6=O)CC4)C2)C3)cc(OC)c1CN(C)C (centres unmarked) [Compound D110]
16,7.00 to 8.00,CNC(=O)N1CCc2c(-c3cc(OC)c(CNc4ccc5c(c4)C(=O)N(C4CCC(=O)NC4=O)C5=O)c(OC)c3)cn(C)c(=O)c2C1 (centres unmarked) [Compound D111]
17,> 8.00,CNC(=O)N1CCc2c(-c3cc(OC)c(CN(C)c4ccc5c(c4)C(=O)N(C4CCC(=O)NC4=O)C5=O)c(OC)c3)cn(C)c(=O)c2C1 (centres unmarked) [Compound D112]
18,> 8.00,CNC(=O)N1CCc2c(-c3cc(OC)c(CN4CCC(CCN5CCC(c6ccc7c(c6)C(=O)N(C6CCC(=O)NC6=O)C7=O)CC5)CC4)c(OC)c3)cn(C)c(=O)c2C1 (centres unmarked) [Compound D113]
19,> 8.00,CNC(=O)N1CCc2c(-c3cc(OC)c(CN4CCC(C(C)(C)N5CCC6(CC5)CC(Oc5ccc7c(c5)C(=O)N(C5CCC(=O)NC5=O)C7=O)C6)CC4)c(OC)c3)cn(C)c(=O)c2C1 (centres unmarked) [Compound D114]
20,> 8.00,COc1cc(-c2cn(C)c(=O)c3c2CCN(C(=O)NCC2CC4(C2)CN(c2ccc5c(c2)C(=O)N(C2CCC(=O)NC2=O)C5=O)C4)C3)cc(OC)c1CN(C)C (centres unmarked) [Compound D115]
21,> 8.00,CNC(=O)N1CCc2c(-c3cc(OC)c(CN4CC(Oc5ccc6c(c5)C(=O)N(C5CCC(=O)NC5=O)C6=O)C4)c(OC)c3)cn(C)c(=O)c2C1 (centres unmarked) [Compound D116]
22,> 8.00,CNC(=O)N1CCc2c(-c3cc(OC)c(CN4CCN(CCN5CCC(c6ccc7c(c6)C(=O)N(C6CCC(=O)NC6=O)C7=O)CC5)CC4)c(OC)c3)cn(C)c(=O)c2C1 (centres unmarked) [Compound D117]

row,pIC50,SMILES
1,> 8.00,CNC(=O)N1CCc2c(-c3cc(OC)c(CN4CCC(CCN5CCN(c6ccc7c(c6)C(=O)N(C6CCC(=O)NC6=O)C7=O)CC5)CC4)c(OC)c3)cn(C3CC3)c(=O)c2C1 (centres unmarked) [Compound D118]
2,> 8.00,COc1cc(-c2cn(C)c(=O)c3c2CCN(C(=O)NC2CCC4CN(c5ccc6c(c5)C(=O)N(C5CCC(=O)NC5=O)C6=O)CC42)C3)cc(OC)c1CN(C)C (centres unmarked) [Compound D119]
3,6.00 to 7.00,COc1cc(-c2cn(C)c(=O)c3c2CCN(C(=O)NCC2CCC4(CCN(c5ccc6c(c5)C(=O)N(C5CCC(=O)NC5=O)C6=O)CC4)O2)C3)cc(OC)c1CN(C)C (centres unmarked) [Compound D120]
4,> 8.00,COc1cc(-c2cn(C)c(=O)c3c2CCN(C(=O)NCC2COC4(CCN(c5ccc6c(c5)C(=O)N(C5CCC(=O)NC5=O)C6=O)CC4)C2)C3)cc(OC)c1CN(C)C (centres unmarked) [Compound D121]
5,7.00 to 8.00,COc1cc(-c2cn(C)c(=O)c3c2CCN(C(=O)NCC2CC4CN(c5ccc6c(c5)C(=O)N([C@H]5CCC(=O)NC5=O)C6=O)CC4C2)C3)cc(OC)c1CN(C)C (some centres unmarked) [Compound D122]
6,> 8.00,COc1cc(-c2cn(C)c(=O)c3c2CCN(C(=O)NCC2CC4CN(c5ccc6c(c5)C(=O)N([C@@H]5CCC(=O)NC5=O)C6=O)CC4C2)C3)cc(OC)c1CN(C)C (some centres unmarked) [Compound D123]
7,> 8.00,CNC(=O)N1CCc2c(-c3cc(OC)c(CN4CC(C(C)(C)N5CCC6(CC5)CN(c5ccc7c(c5)C(=O)N(C5CCC(=O)NC5=O)C7=O)C6)C4)c(OC)c3)cn(C)c(=O)c2C1 (centres unmarked) [Compound D124]
8,> 8.00,CNC(=O)N1CCc2c(-c3cc(OC)c(CN4CCC(CN(C(C)C)C5CC(Oc6ccc7c(c6)C(=O)N(C6CCC(=O)NC6=O)C7=O)C5)CC4)c(OC)c3)cn(C)c(=O)c2C1 (centres unmarked) [Compound D125]
9,6.00 to 7.00,CNC(=O)N1CCc2c(-c3cc(OC)c(CN4CC5(CCN(C(C)(C)C#Cc6ccc7c(c6)C(=O)N(C6CCC(=O)NC6=O)C7=O)CC5)C4)c(OC)c3)cn(C)c(=O)c2C1 (centres unmarked) [Compound D126]
10,> 8.00,CNC(=O)N1CCc2c(-c3cc(OC)c(CN4CCC(=CCN5CCN(c6ccc7c(c6)C(=O)N(C6CCC(=O)NC6=O)C7=O)CC5)CC4)c(OC)c3)cn(C)c(=O)c2C1 (centres unmarked) [Compound D127]
11,> 8.00,CNC(=O)N1CCc2c(-c3cc(OC)c(CN4CCC(C(C)N5CCC6(CC5)CC(Oc5ccc7c(c5)C(=O)N(C5CCC(=O)NC5=O)C7=O)C6)CC4)c(OC)c3)cn(C)c(=O)c2C1 (centres unmarked) [Compound D128]
12,7.00 to 8.00,CNC(=O)N1CCc2c(-c3cc(OC)c(CN4CC5CC4CC5CN4CCN(c5ccc6c(c5)C(=O)N(C5CCC(=O)NC5=O)C6=O)CC4)c(OC)c3)cn(C)c(=O)c2C1 (centres unmarked) [Compound D129]
13,> 8.00,CNC(=O)N1CCc2c(-c3cc(OC)c(CC4CCN(CCN5CCN(c6ccc7c(c6)C(=O)N(C6CCC(=O)NC6=O)C7=O)CC5)CC4)c(OC)c3)cn(C)c(=O)c2C1 (centres unmarked) [Compound D130]
14,> 8.00,CNC(=O)N1CCc2c(-c3cc(OC)c(CN4CCN(c5ccc6c(c5)C(=O)N(C5CCC(=O)NC5=O)C6=O)CC4)c(OC)c3)cn(C)c(=O)c2C1 (centres unmarked) [Compound D131]
15,> 8.00,CNC(=O)N1CCc2c(-c3cc(OC)c(CN4CC(N5CCN(c6ccc7c(c6)C(=O)N(C6CCC(=O)NC6=O)C7=O)CC5)C4)c(OC)c3)cn(C)c(=O)c2C1 (centres unmarked) [Compound D132]
16,> 8.00,CNC(=O)N1CCc2c(-c3cc(OC)c(CN4CCC(CN5CCC6(CC5)CN(c5ccc7c(c5)C(=O)N(C5CCC(=O)NC5=O)C7=O)C6)CC4)c(OC)c3)cn(C)c(=O)c2C1 (centres unmarked) [Compound D136]
17,7.00 to 8.00,CNC(=O)N1CCc2c(-c3cc(OC)c(CN4CCC5(CC4)CCN(C(C)(C)C#Cc4ccc6c(c4)C(=O)N(C4CCC(=O)NC4=O)C6=O)C5)c(OC)c3)cn(C)c(=O)c2C1 (centres unmarked) [Compound D137]
18,> 8.00,CNC(=O)N1CCc2c(-c3cc(OC)c(CN4CC5CC4CC5CCN4CCN(c5ccc6c(c5)C(=O)N(C5CCC(=O)NC5=O)C6=O)CC4)c(OC)c3)cn(C)c(=O)c2C1 (centres unmarked) [Compound D138]
19,> 8.00,CNC(=O)N1CCc2c(-c3cc(OC)c(CN4CCN(CCN5CCN(c6ccc7c(c6)C(=O)N(C6CCC(=O)NC6=O)C7=O)CC5)CC4)c(OC)c3)cn(C)c(=O)c2C1 (centres unmarked) [Compound D139]
20,> 8.00,CNC(=O)N1CCc2c(-c3cc(OC)c(CN4CCC5(CC4)CN(CCCN4CCN(c6ccc7c(c6)C(=O)N(C6CCC(=O)NC6=O)C7=O)CC4)CCO5)c(OC)c3)cn(C)c(=O)c2C1 (centres unmarked) [Compound D140]
21,> 8.00,CNC(=O)N1CCc2c(-c3cc(OC)c(CN4[C@H](C)CN(CCC5CCN(c6ccc7c(c6)C(=O)N(C6CCC(=O)NC6=O)C7=O)CC5)C[C@@H]4C)c(OC)c3)cn(C)c(=O)c2C1 (some centres unmarked) [Compound D141]
22,> 8.00,CNC(=O)N1CCc2c(-c3cc(OC)c(CN4CC(C#Cc5ccc6c(c5)C(=O)N(C5CCC(=O)NC5=O)C6=O)C4)c(OC)c3)cn(C)c(=O)c2C1 (centres unmarked) [Compound D142]
